Columns and labels:
Type in all cases: cell-based
[1] = system: rat primary culture microglial cells (PMGC); assay: Phosphorylation of ERK1/2 in PMGC; conditions: lysoPS
GPR34 [2] = target: T1, GPR34 (Homo sapiens, UniProt Q9UPC5); assay: Intracellular cAMP production inhibitory activity on GPR34-expressed CHO cells (forskolin stimulated); conditions: phosphatidylserine in a higher concentration
T1 construct: expressed in transfected cells
Description: The GPR34-expressed CHO cells prepared in (1-2) described above and selected in (1-3) described above were plated on a 24-well plate in 6×10^4 cells/well followed by incubation for 48 hours. The cells were washed with αMEM medium (pH 7.5) containing 0.2 mM 3-isobutylmethylxanthine, 0.05% BSA and 20 mM HEPES (hereinafter αMEM medium (pH 7.5) containing 0.2 mM 3-isobutylmethylxanthine, 0.05% BSA and 20 mM HEPES is referred to as the reaction buffer). Thereafter, 0.5 mL of the reaction buffer was added and the mixture was kept warm for 30 minutes in an incubator. The reaction buffer was removed and 0.25 mL of fresh reaction buffer was replenished to the cells. Then, 0.25 mL of the reaction buffer containing a sample and 2 μM forskolin was added to the cells, followed by reacting at 37° C. for 30 minutes. The reaction solution was removed and 0.5 mL of the cell lysis solution attached to cAMP EIA kit (Applied Biosystems) to extract cAMP in the cells. The cAMP level in the extract was quantified using the same kit. Based on this measurement data, the cAMP production inhibitory activity was calculated based on the equation shown below and expressed in terms of percentage to the control group. […]

[3] = system: rat peritoneal mast cells; assay: Degranulation of rat peritoneal mast cells (β-hexosaminidase activity in supernatant); conditions: for degranulation: 20 minutes
Description: The rat peritoneal mast cells (RPMC) obtained by the procedure described in EXAMPLE 1 were subjected to passive sensitization for 30 minutes on ice using DNP IgE (Yamasa, 10 μg/ml), washed and plated on a 96-well plate in a final cell concentration of 100,000 cells/well in the reaction solution. RPMC was stimulated by lysoPS and DNP-BSA (Carbiochem) and the plate was centrifuged 20 minutes after. The β-hexosaminidase activity in the supernatant of the reaction solution was assayed using the degradation activity of 4-methylumbeliferryl-2-acetamido-2-deoxy-β-D-glucopyranoside (Wako Pure Chemicals) as an indicator.

[4] = system: rat primary culture microglial cells (PMGC); assay: Expression of cytokine genes in activated PMGC (TaqMan PCR); conditions: lysoPS 5 μM, LPS 1 μg/ml, IFN-α 1 ng/ml
Description: In order to examine the action of lysoPS on the activation of microglia, actions induced by the addition of lysoPS in PMGC activated by LPS stimulation was examined in the presence of IFN-α. PMGC, which was prepared from the brain of rat of one day old on the preceding day, was plated on a 24-well plate (Falcon 353047) at 50000 cells/well, and IFN-α (1 ng/ml, Biovision) was added 6 hours after. On the following day, lysoPS (5 μM) was added upon stimulation by LPS (1 μg/ml), and comparison was made between the presence and absence of lysoPS if cytokine production was affected. RNA was prepared as in the procedure described in EXAMPLE 4 for 2 and 8 hours after addition or without addition of LPS and lysoPS (5 μM). The sequencing information of the primers, probe and standard used for TaqMan are as described above. The cytokine production was compared by TaqMan PCR in terms of changes in expression levels of cytokine genes.

GPR34 [5] = target: T1, GPR34; assay: DNA synthesis activity (tritium-labeled thymidine) of human GPR34-expressed CHO cells; conditions: serum-free medium, 16 hours
Description: The human GPR34-expressed CHO cells prepared by the procedure as described in REFERENCE EXAMPLE 1 were plated at a cell density of 20,000 cells/well on a 96-well plate charged with serum-free medium. The cells were allowed to stand for 4 hours, 0, 0.1, 0.3, 1 and 3 μM lysoPS was added thereto, respectively, followed by incubation for 16 hours. After 1 μCi/well of tritium-labeled thymidine (Amersham, TRK120) was added to achieve labeling for 4 hours, fixation was performed in 10% trichloroacetic acid. Solubilization in an aqueous sodium hydroxide solution was followed by neutralization in trichloroacetic acid to collect DNA with a cell harvester. The radioactivity on the filter was taken as DNA synthesis activity.

T1 sequence (Q9UPC5 whole entry): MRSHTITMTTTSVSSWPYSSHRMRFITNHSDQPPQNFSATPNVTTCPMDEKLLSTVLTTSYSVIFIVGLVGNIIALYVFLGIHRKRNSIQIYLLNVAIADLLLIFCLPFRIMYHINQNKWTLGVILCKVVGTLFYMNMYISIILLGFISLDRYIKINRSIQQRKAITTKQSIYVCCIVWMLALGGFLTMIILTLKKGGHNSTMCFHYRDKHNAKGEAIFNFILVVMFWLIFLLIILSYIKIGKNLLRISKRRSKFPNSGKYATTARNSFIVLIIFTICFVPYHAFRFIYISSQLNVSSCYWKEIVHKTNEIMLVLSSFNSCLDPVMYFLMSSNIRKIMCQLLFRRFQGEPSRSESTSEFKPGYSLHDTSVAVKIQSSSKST

lysophosphatidylserine [lysoPS]
phosphorylation of ERK1/2 [1]: also noted in PMGC
cAMP production inhibitory activity (GPR34 [2]): marked activities
degranulation ([3]; 100 ng/ml DNP-BSA with 0.1 μM lysoPS added simultaneously): 8.4%
degranulation ([3]; 100 ng/ml DNP-BSA with 0.3 μM lysoPS added simultaneously): 14.7%
degranulation ([3]; 100 ng/ml DNP-BSA with 1 μM lysoPS added simultaneously): 26.0%
degranulation ([3]; 100 ng/ml DNP-BSA with 3 μM lysoPS added simultaneously): 36.7%
degranulation ([3]; 100 ng/ml DNP-BSA with 10 μM lysoPS added simultaneously): 45.2%
degranulation (in words) ([3]; 0.1 to 10 μM lysoPS with 100 ng/ml DNP-BSA): increased concentration-dependently
expression of inflammatory cytokine IL-6 ([4]; 2 hours after the addition): tendency to suppress the expression
expression of inflammatory cytokine TNF-α ([4]; 2 hours after the addition): tendency to suppress the expression
expression of anti-inflammatory cytokine IL-10 ([4]; 8 hours after): tendency to increase its expression
DNA synthesis activity, increase (GPR34 [5]; 0.1 μM lysoPS): 1.1 times
DNA synthesis activity, increase (GPR34 [5]; 0.3 μM lysoPS): 1.2 times
DNA synthesis activity, increase (GPR34 [5]; 1 μM lysoPS): 2.0 times
DNA synthesis activity, increase (GPR34 [5]; 3 μM lysoPS): 3.2 times

— patent US7951548B2, “IL-13 production inhibitor” (Takeda Pharmaceutical Company Limited, priority 2005, dated 2011)
